Laboratory results from US11952379B2, “Small molecule modulators of PAR2 and uses thereof” (Arizona Board of Regents on Behalf of the University of …, priority 2018, dated 2024).

Tests used:
PAR2 [1] = target: T1, PAR2 (Mus musculus, UniProt P55086); assay: Mechanical hypersensitivity / paw withdrawal response to PAR2 agonist 2AT injected into the hindpaw; type: in vivo; conditions: mice
T1 construct: from tissue; host or cells: live mice, hindpaw
T1 sequence (P55086 26-399): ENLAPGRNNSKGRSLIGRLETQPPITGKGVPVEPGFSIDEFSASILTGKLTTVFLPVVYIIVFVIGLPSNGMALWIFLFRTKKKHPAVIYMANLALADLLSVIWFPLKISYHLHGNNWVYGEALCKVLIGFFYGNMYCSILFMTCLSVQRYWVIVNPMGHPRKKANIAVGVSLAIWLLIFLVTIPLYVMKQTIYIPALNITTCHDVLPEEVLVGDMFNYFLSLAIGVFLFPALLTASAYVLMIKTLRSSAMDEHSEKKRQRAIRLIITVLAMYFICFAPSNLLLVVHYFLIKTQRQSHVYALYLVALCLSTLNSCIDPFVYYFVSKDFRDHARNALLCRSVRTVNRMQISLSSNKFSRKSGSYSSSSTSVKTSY
Experimental: Experiments were conducted to test C781 in vivo in mice for its ability to block mechanical hypersensitivity (a pain measure) in response to a PAR2 agonist (2AT-LIGRL, also known as 2AT).
Animals were injected with 2at (black), 2at+C781(yellow), or C781 alone (green).
Animals were systemically treated with C781 or control and then local injected with 2at (black with control; yellow with C781) or with vehicle alone (green). […] This is important because previous PAR2 antagonists have not had systemic bioavailability and have only worked with very high doses via intravenous injection.

[2] = tested on: PAR2-dependent MAPK signaling; assay: PAR2-dependent MAPK signaling (MAPK phosphorylation); type: cell-based
[3] = tested on: PAR2-dependent Ca^2+ signaling; assay: PAR2-dependent Ca2+ signaling; type: cell-based
Experimental: Addition of 1.75 μM of the potent PAR2 agonist 2at-LIGRL-NH2 (C134) induced Ca^2+ signaling in 50% of the cells within the experiment.

PAR2 [4] = target: T2, PAR2 (Homo sapiens, UniProt P55085); assay: Inhibition of PAR2 response induced by 2at-LIGRL-NH2 (FIG. 1); type: cell-based; conditions: antagonist against agonist 2at-LIGR1-NH2
T2 sequence (P55085 26-397): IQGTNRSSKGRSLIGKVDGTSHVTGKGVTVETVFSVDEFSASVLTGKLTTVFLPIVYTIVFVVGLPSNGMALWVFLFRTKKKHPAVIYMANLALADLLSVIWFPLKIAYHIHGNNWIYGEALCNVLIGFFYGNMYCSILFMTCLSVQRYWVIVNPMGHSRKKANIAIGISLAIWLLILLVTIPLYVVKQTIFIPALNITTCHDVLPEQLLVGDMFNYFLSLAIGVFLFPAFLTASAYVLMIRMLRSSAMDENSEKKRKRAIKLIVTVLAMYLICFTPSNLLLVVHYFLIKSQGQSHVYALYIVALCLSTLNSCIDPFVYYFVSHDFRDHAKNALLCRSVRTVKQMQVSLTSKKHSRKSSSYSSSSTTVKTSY

PAR2 [5] = target: T1, PAR2; assay: 2AT-evoked hyperalgesic priming in the hindpaw; type: in vivo; conditions: given locally into the mouse hindpaw; FIG. 3

2-aminothiazol-LIGRL-NH2 [2at-LIGRL-NH2, reference compound]
paw withdrawal response (pain) induced by agonist (PAR2 [1]; 2at injected into hindpaw, lower numbers indicative of pain): induced a rapid withdrawal response
induction of MAPK phosphorylation ([2]; agonist at 600 nM, set as 100% response): induced significant phosphorylation of MAPK
cells showing Ca2+ signaling ([3]; agonist at 1.75 μM, percent of the cells within the experiment): 50%

CC(C)CC(=O)N[C@H]1CN(C(=O)c2ccco2)C2CN(CC3CCNCC3)C(=O)[C@H](CC(C)C)N2C1=O (stereo partly drawn) [C781]
concentration at which the 2at-LIGR1-NH2-induced PAR2 response was fully limited / compound was effective (PAR2 [4]): 30 to 300 nM
effect on 2at-induced paw withdrawal response (pain) (PAR2 [1]; C781 given intraperitoneally 30 min prior to 2AT injection into the hindpaw, FIG. 4): reduced the 2at response
effect on paw withdrawal response of compound alone (PAR2 [1]; C781 injected locally with vehicle alone (no 2at), FIG. 2): had no effect
effect on 2at-induced paw withdrawal response (pain) (PAR2 [1]; C781 locally administered into hindpaw together with 2at, FIG. 2): reduced the 2at response
effect on paw withdrawal response after vehicle injection (PAR2 [1]; systemically administered C781, local vehicle alone, FIG. 4): had no effect on vehicle treatment
effect on 2AT-evoked hyperalgesic priming (PAR2 [5]): blocked 2AT-evoked hyperalgesic priming
IC50 ([2]; response induced by 600 nM 2at-LIGRL-NH2 (100% response), 95% CI: 3.4 μM-21 μM, FIG. 5, read-out: IC50 for reduction of PAR2-dependent MAPK phosphorylation): 8.5 µM
effect on PAR2-dependent Ca2+ signaling ([3]; administered with 1.75 μM 2at-LIGRL-NH2 (C134), FIG. 6): no significant effect

CC(C)CC(=O)N1C[C@H](NC(=O)c2csc(N)n2)C(=O)N2C1CN(CC1CCNCC1)C(=O)[C@@H]2CC(C)C (stereo partly drawn) [C732]
concentration at which the 2at-LIGR1-NH2-induced PAR2 response was fully limited / compound was effective (PAR2 [4]): 100 to 300 nM
